Source: patent US20240246918A1, “COMPOUNDS AND COMPOSITIONS AS EIF4E INHIBITORS AND THE USES THEREOF” (Ribometrix, Inc., priority 2022, published 2024)

Experiments:
human eIF4E protein = molecular target: T1, human eIF4E protein (Homo sapiens, UniProt P06730); assay: Biochemical competitive binding assay (TR-FRET competition, EDA-m7GDP-ATTO-647N probe); settings: read-out: hEIF4E TR-FRET IC50
T1 construct: purchased Novus NBP-45314
Method in brief: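 IC50 values come from 4-parameter fits of the normalized 665/620 nm TR-FRET ratio. Compound was first incubated 15 min with 4 nM recombinant His-eIF4E bound to 2.5 nM Eu-anti-His antibody, then 15 min with 5 nM m7GDP-ATTO-647N tracer, in pH 7.5 HEPES buffer with 100 mM KCl, Tween-20 and BSA.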

[1] = tested on: COLO 205 colorectal tumor cells; assay: Tumor cell viability inhibition assay (CellTiter-Glo 2.0, 72 hours); type: cell-based; settings: COLO 205 cell viability
Method in brief: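 IC50 derived by 4-parameter fitting after normalizing luminescence to DMSO and max-inhibition wells. Compounds tested as 11 concentrations in 4-fold steps on COLO 205 cells seeded at 1500 per well in RPMI-1640/10% FBS; ATP content measured with CellTiter-Glo 2.0 after 72 h.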

T1 sequence (P06730 whole entry): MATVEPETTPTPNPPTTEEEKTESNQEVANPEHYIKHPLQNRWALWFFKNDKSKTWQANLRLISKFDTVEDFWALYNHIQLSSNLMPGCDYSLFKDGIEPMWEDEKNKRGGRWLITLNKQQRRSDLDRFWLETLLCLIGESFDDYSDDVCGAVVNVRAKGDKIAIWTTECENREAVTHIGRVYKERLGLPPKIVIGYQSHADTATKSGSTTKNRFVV

Row | SMILES | IC50 (human eIF4E protein) [µM] | IC50 [1] [µM] | IC50 ([1]; Homo sapiens, COLO 205, 72 h) [µM]
1 | Cc1cc(-c2cc(Cl)ccc2OCCn2c(C)nc3c(c2=O)CC(CN)(N2CCC(OC(F)(F)F)CC2)CC3)c2scc(C(=O)O)c2n1 (single isomer, unassigned) [Compound 623] | 0.1 to 0.5 | > 20 | 
2 | Cc1cc(-c2cc(Cl)ccc2OCCn2c(C)nc3c(c2=O)C[C@H](N2CCCC[C@@H]2C(F)(F)F)CC32CC2)c2scc(C(=O)O)c2n1 (single isomer, unassigned) [Compound 624] | 0.1 to 0.5 |  | 5 to 20
3 | Cc1cc(-c2cc(Cl)ccc2OCCn2c(C)nc3c(c2=O)C[C@@H](N2CCCC(C)[C@@H]2C(F)(F)F)CC32CC2)c2scc(C(=O)O)c2n1 (single isomer, unassigned) [Compound 625] | 0.1 to 0.5 |  | 5 to 20
4 | Cc1cc(-c2cc(Cl)ccc2OCCn2c(C)nc3c(c2=O)C[C@H](N2CCCC[C@H]2c2cccc(F)c2)CC32CC2)c2scc(C(=O)O)c2n1 (single isomer, unassigned) [Compound 626, 7-(5-chloro-2-(2-(6′-(2-(3-fluorophenyl)piperidin-1-yl)-2′-methyl-4′-oxo-6′,7′-dihydro-4′H-spiro[cyclopropane-1,8′-quinazolin]-3′(5′H)-yl)ethoxy)phenyl)-5-methylthieno[3,2-b]pyridine-3-carboxylic acid] | < 0.1 |  | 5 to 20
5 | Cc1cc(-c2cc(Cl)ccc2OCCn2c(C(F)(F)F)nc3c(c2=O)CC(N2CCC(OC(F)(F)F)CC2)CC3)c2scc(C(=O)O)c2n1 (single isomer, unassigned) [Compound 627] | 0.5 to 5 |  | > 20
6 | Cc1cc(-c2cc(Cl)ccc2OCCn2c(C)nc3c(c2=O)C[C@@H](N2CCCC[C@H]2c2cccc(F)c2)CC32CC2)c2scc(C(=O)O)c2n1 (single isomer, unassigned) [Compound 628, 7-(5-chloro-2-(2-(6′-(2-(3-fluorophenyl)piperidin-1-yl)-2′-methyl-4′-oxo-6′,7′-dihydro-4′H-spiro[cyclopropane-1,8′-quinazolin]-3′(5′H)-yl)ethoxy)phenyl)-5-methylthieno[3,2-b]pyridine-3-carboxylic acid] | < 0.1 |  | < 5
7 | Cc1cc(-c2cc(Cl)ccc2OCCn2c(C)nc3c(c2=O)C[C@@H](N2CCCC[C@@H]2c2cccc(F)c2)CC32CC2)c2scc(C(=O)O)c2n1 (single isomer, unassigned) [Compound 629, 7-(5-chloro-2-(2-(6′-(2-(3-fluorophenyl)piperidin-1-yl)-2′-methyl-4′-oxo-6′,7′-dihydro-4′H-spiro[cyclopropane-1,8′-quinazolin]-3′(5′H)-yl)ethoxy)phenyl)-5-methylthieno[3,2-b]pyridine-3-carboxylic acid] | 0.5 to 5 |  | 5 to 20
8 | Cc1cc(-c2cc(Cl)ccc2OCCn2c(C)nc3c(c2=O)C[C@@H](N2CCCC[C@H]2C(F)(F)F)CC32CC2)c2scc(C(=O)O)c2n1 (single isomer, unassigned) [Compound 630] | < 0.1 |  | 5 to 20
9 | Cc1cc(-c2cc(Cl)ccc2OCCn2c(C(F)(F)F)nc3c(c2=O)CC(N2CCC(OC(F)(F)F)CC2)CC3)c2scc(C(=O)O)c2n1 (single isomer, unassigned) [Compound 631] | 0.5 to 5 | > 20 | 
10 | Cc1cc(-c2cc(Cl)ccc2OCCn2c(C)nc3c(c2=O)CC(N2CCC4(CC2)CC4(F)F)CC32CC2)c2scc(C(=O)NS(C)(=O)=O)c2n1 (single isomer, unassigned) [Compound 632] | < 0.1 |  | < 5
11 | Cc1cc(-c2cc(Cl)ccc2OCCn2c(C)nc3c(c2=O)C[C@H](N2CCCC[C@H]2C(F)(F)F)CC32CC2)c2scc(C(=O)O)c2n1 (single isomer, unassigned) [Compound 633] | < 0.1 |  | 5 to 20
12 | Cc1cc(-c2cc(Cl)ccc2OCCn2c(C)nc3c(c2=O)C[C@H](N2CCCC[C@@H]2c2cccc(F)c2)CC32CC2)c2scc(C(=O)O)c2n1 (single isomer, unassigned) [Compound 634, 7-(5-chloro-2-(2-(6′-(2-(3-fluorophenyl)piperidin-1-yl)-2′-methyl-4′-oxo-6′,7′-dihydro-4′H-spiro[cyclopropane-1,8′-quinazolin]-3′(5′H)-yl)ethoxy)phenyl)-5-methylthieno[3,2-b]pyridine-3-carboxylic acid] | 0.1 to 0.5 |  | > 20
13 | COC1CCN([C@H]2CCc3nc(C)n(CCOc4ccc(Cl)cc4-c4cc(C)nc5c(C(=O)O)csc45)c(=O)c3[C@H]2C)CC1 (stereo in doubt) [Compound 102, 7-(5-chloro-2-(2-(6-(4-methoxypiperidin-1-yl)-2,5-dimethyl-4-oxo-5,6,7,8-tetrahydroquinazolin-3(4H)-yl)ethoxy)phenyl)-5-methylthieno[3,2-b]pyridine-3-carboxylic acid] | < 0.1 |  | 5 to 20
14 | COC1CCN([C@@H]2CCc3nc(C)n(CCOc4ccc(Cl)cc4-c4cc(C)nc5c(C(=O)O)csc45)c(=O)c3[C@@H]2C)CC1 (stereo in doubt) [Compound 103, 7-(5-chloro-2-(2-(6-(4-methoxypiperidin-1-yl)-2,5-dimethyl-4-oxo-5,6,7,8-tetrahydroquinazolin-3(4H)-yl)ethoxy)phenyl)-5-methylthieno[3,2-b]pyridine-3-carboxylic acid] | < 0.1 |  | 5 to 20
15 | Cc1cc(-c2cc(Cl)ccc2OCCn2c(C)nc3c(c2=O)C[C@](C)(N2C[C@@H]4CC(F)(F)C[C@@H]4C2)CC3)c2scc(C(=O)O)c2n1 (stereo in doubt) [Compound 566] | < 0.1 |  | < 5
16 | Cc1cc(-c2cc(Cl)ccc2OCCn2c(C)nc3c(c2=O)C[C@@](C)(N2C[C@@H]4CC(F)(F)C[C@@H]4C2)CC3)c2scc(C(=O)O)c2n1 (stereo in doubt) [Compound 567] | < 0.1 |  | < 5
17 | COc1cc(CN(CC(F)F)C2CCc3nc(C)n(CCOc4ccc(Cl)cc4-c4cc(C)nc5c(C(=O)O)csc45)c(=O)c3C2)ccn1 (centres unmarked) [Compound 112, 7-[2-[2-[6-[2,2-bis(fluorenyl)ethyl-[(2-methoxy-4-pyridyl)methyl]amino]-2-methyl-4-oxidanylidene-5,6,7,8-tetrahydroquinazolin-3-yl]ethoxy]-5-chloranyl-phenyl]-5-methyl-thieno[3,2-b]pyridine-3-carboxylic acid] | < 0.1 |  | 5 to 20
18 | COC1CCN(C2(C)CCc3nc(C)n(CCOc4ccc(Cl)cc4-c4cc(C)nc5c(C(=O)O)csc45)c(=O)c3C2)CC1 (centres unmarked) [Compound 114] | < 0.1 |  | < 5
19 | CCS(=O)(=O)C1CCN(C2CCc3nc(C)n(CCOc4ccc(Cl)cc4-c4cc(C)nc5c(C(=O)O)csc45)c(=O)c3C2)CC1 (centres unmarked) [Compound 115] | < 0.1 |  | 5 to 20
20 | Cc1nc2c(c(=O)n1CCOc1ccc(Cl)cc1-c1ccnc(CC(=O)O)c1)CC(N(C)CC1CC(F)(F)C1)CC2 (centres unmarked) [Compound 118] | 0.5 to 5 |  | > 20
21 | Cc1cc(-c2cc(Cl)ccc2OCCn2c(C)nc3c(c2=O)CC(N2CC(F)(F)C(F)(F)C2)CC3)c2scc(C(=O)O)c2n1 (centres unmarked) [Compound 119] | < 0.1 |  | 5 to 20
22 | Cc1cc(-c2cc(Cl)ccc2OCCn2c(C)nc3c(c2=O)C(C)(C)C(N)CC3)c2scc(C(=O)O)c2n1 (centres unmarked) [Compound 123, 7-(2-(2-(6-amino-2,5,5-trimethyl-4-oxo-5,6,7,8-tetrahydroquinazolin-3(4H)-yl)ethoxy)-5-chlorophenyl)-5-methylthieno[3,2-b]pyridine-3-carboxylic acid] | 0.5 to 5 |  | > 20
